The numbers were not newly measured in patent US20150320675A1, “Modified Release Osmotic Pump for PH-Responsive Drug Delivery” (UNIVERSITY OF UTAH RESEARCH FOUNDATION, priority 2013, published 2015), which cites them from elsewhere.

The structures appear in SMILES notation.

In data set [1] the target is reverse transcriptase (Human immunodeficiency virus type 1 group M subtype B, UniProt P04585).
The subject of data set [2] is entry.

For `Cc1cc(C)cc(C(=O)c2c(C(C)C)c(=O)[nH]c(=O)n2CC2CC2)c1` [IQP-0528, 1-(cyclopropylmethyl)-6-(3,5-dimethylbenzoyl)-5-isopropylpyrimidine-2,4(1H,3H)-dione], in data set [1], the “non-nucleoside reverse transcriptase inhibition activity” value was “potent nanomolar”. In data set [2], the entry inhibition activity entry is “potent nanomolar”.
